Data published in US8614207B2, “Inhibitors of hepatitis C virus” (Presidio Pharmaceuticals, Inc., priority 2010, dated 2013).

System: HCV1b replication (bicistronic genotype 1b replicon in Huh 7 cells)
Assay: HCV replicon assay, 1b_Huh-Luc/Neo-ET cell line, luciferase readout
Assay type: cell-based, HCV genotype 1b
Conditions: Hepatitis C virus, Group 1 / Group 2, read-out: EC50, concentration effective to produce a half-maximal inhibition of HCV1b replication
Procedure: Biological activity of the compounds of the invention was determined using an HCV replicon assay. The 1b_Huh-Luc/Neo-ET cell line persistently expressing a bicistronic genotype 1b replicon in Huh 7 cells was obtained from ReBLikon GMBH. This cell line was used to test compound inhibition using luciferase enzyme activity readout as a measurement of compound inhibition of replicon levels.
On Day 1 (the day after plating), each compound is added in triplicate to the cells. Plates incubated for 72 […] prior to running the luciferase assay. Enzyme activity was measured using a Bright-Glo Kit (cat. number E2620) manufactured by Promega Corporation. The following equation was used to generate a percent control value for each compound. % Control=(Average Compound Value/Average Control)*100
The EC50 value was determined using GraphPad Prism and the following equation: Y=Bottom+(Top−Bottom)/(1+10^((Log IC50−X)*HillSlope))
EC50 values of compounds are repeated several times in the replicon assay.

CNC(=O)c1c(-c2ccc(Oc3ccc(F)cc3)cc2)oc2cc3c(cc12)[C@@H](C)O[C@H](CS(C)(=O)=O)CN3S(C)(=O)=O [Compound B216]
EC50: 10 to 100 nM

CNC(=O)c1c(-c2ccc(F)cc2)oc2cc3c(cc12)[C@H](C)OCCN3S(C)(=O)=O [Compound B45]
EC50: ≤ 10 nM

CNC(=O)c1c(-c2ccc(Oc3ccc(F)cc3)cc2)oc2cc3c(cc12)C(C)OC(CS(C)(=O)=O)CN3S(C)(=O)=O (centres unmarked) [Compound B192]
EC50: ≤ 10 nM

CNC(=O)c1c(-c2ccc(F)cc2)oc2cc3c(cc12)[C@@H](C)O[C@H](CS(C)(=O)=O)CN3S(C)(=O)=O [Compound B215]
EC50: 10 to 100 nM

CNC(=O)c1c(-c2ccc(F)cc2)oc2cc3c(cc12)C(C)OCCN3S(C)(=O)=O (centres unmarked) [Compound B22]
EC50: 10 to 100 nM
